This note sets out measurements from ChEMBL document CHEMBL3045913, “Synthesis and cytotoxicity of novel chrysin derivatives” (Med Chem Res, 2011).

Common to all, as to assay type: functional, cell-based
In experiment [1] the test system is HCT-116. Briefly: Cytotoxicity against Homo sapiens (human) HCT116 cells by MTT assay. A general note: Formazan colour is commonly taken as a measure of viable cells.
Experiment [2] has as its system SGC-7901. Briefly: Cytotoxicity against Homo sapiens (human) SGC7901 cells by MTT assay.
Experiment [3] has as its system DU-145. Briefly: Cytotoxicity against Homo sapiens (human) DU145 cells by MTT assay.
The test system of experiment [4] is K562. Briefly: Cytotoxicity against Homo sapiens (human) K562 cells by MTT assay.
Experiment [5] relates to HeLa. Briefly: Cytotoxicity against Homo sapiens (human) HeLa cells by MTT assay.

Regarding `CC(C)N(CCOc1cc(O)c2c(=O)cc(-c3ccccc3)oc2c1)C(C)C`, the IC50 in experiment [1] stood at 4.6 µM; in experiment [2] it was 7.98 µM; in experiment [3], 18.1 µM; in experiment [4], 27.8 µM; in experiment [5], 24.2 µM.
For `O=c1cc(-c2ccccc2)oc2cc(OCCNC3CCCCC3)cc(O)c12` the same measures were 2.95 µM, 6.18 µM, 4.98 µM, 1.76 µM and 6.97 µM.
The like results for `O=c1cc(-c2ccccc2)oc2cc(OCCN3CCOCC3)cc(O)c12` were, in that order, greater than 100 µM, 43 µM, greater than 100 µM, greater than 100 µM and greater than 100 µM.
Consider `O=c1cc(-c2ccccc2)oc2cc(OCCN3CCN(c4ccccc4)CC3)cc(O)c12`, for which the IC50 in experiment [1], in experiment [2], in experiment [3], in experiment [4] and in experiment [5] was greater than 100 µM in each case.
Consider `O=c1cc(-c2ccccc2)oc2cc(OCCn3ccnc3)cc(O)c12`, for which the half-inhibitory concentration (IC50) worked out at 4.2 µM in experiment [1]; 5.55 µM in experiment [2]; 7.3 µM in experiment [3]; 27.2 µM in experiment [4]; 10.8 µM in experiment [5].
For `Cc1nccn1CCOc1cc(O)c2c(=O)cc(-c3ccccc3)oc2c1` the same measures were 3.2 µM, 7.83 µM, 8.2 µM, 10.8 µM and 9.7 µM.
Regarding `O=c1cc(-c2ccccc2)oc2cc(OCCNCCO)cc(O)c12`, the IC50 in experiment [1] was 2.3 µM; in experiment [2], 5.05 µM; in experiment [3], 5.5 µM; in experiment [4] it was 8.31 µM; in experiment [5], 4.46 µM.
The like results for `O=c1cc(-c2ccccc2)oc2cc(OCCN(CCO)CCO)cc(O)c12` were, in that order, 22.2 µM, 59.2 µM, greater than 100 µM, 105 µM and 86.5 µM.
As to `O=c1cc(-c2ccccc2)oc2cc(OCCNc3ccccc3)cc(O)c12`, the half-maximal inhibitory concentration (IC50) is 35.5 µM in experiment [1]; 69.8 µM in experiment [2]; 68.2 µM in experiment [3]; 31.2 µM in experiment [4]; greater than 100 µM in experiment [5].
The like results for `CNCCOc1cc(O)c2c(=O)cc(-c3ccccc3)oc2c1` were, in that order, 2.5 µM, 4.8 µM, 2.95 µM, 7.8 µM and 3.72 µM.
On to `CC(C)NCCOc1cc(O)c2c(=O)cc(-c3ccccc3)oc2c1`, for which the IC50 in experiment [1] was 8.1 µM; in experiment [2], greater than 100 µM; in experiment [3] it was greater than 100 µM; in experiment [4], greater than 100 µM; in experiment [5], greater than 100 µM.
For the compound `CCCCNCCOc1cc(O)c2c(=O)cc(-c3ccccc3)oc2c1`, the IC50 turned out to be 2.7 µM in experiment [1]; 1.88 µM in experiment [2]; 1.85 µM in experiment [3]; 14.9 µM in experiment [4]; 40.9 µM in experiment [5].
The like results for `CC(C)(C)NCCOc1cc(O)c2c(=O)cc(-c3ccccc3)oc2c1` were, in that order, 1.87 µM, 3.15 µM, 2.75 µM, greater than 100 µM and 4.92 µM.
Take `CN(C)CCOc1cc(O)c2c(=O)cc(-c3ccccc3)oc2c1`: the IC50 in experiment [1] worked out at 6.2 µM; in experiment [2], 11 µM; in experiment [3] it was 17.7 µM; in experiment [4], 17.9 µM; in experiment [5] it was 17.7 µM.
Consider `O=c1cc(-c2ccccc2)oc2cc(OCCN3CCCCC3)cc(O)c12`, for which the IC50 in experiment [1] is greater than 100 µM; in experiment [2], 3.1 µM; in experiment [3], 3.17 µM; in experiment [4] it was 16.9 µM; in experiment [5], 1.7 µM.
For `CCCCN(CCCC)CCOc1cc(O)c2c(=O)cc(-c3ccccc3)oc2c1` the same measures were 9.7 µM, 53.3 µM, 44.2 µM, 43.4 µM and 13.3 µM.
With `O=c1cc(-c2ccccc2)oc2cc(OCCN3CCNCC3)cc(O)c12`, the IC50 in experiment [1] was 32.3 µM; in experiment [2] it was greater than 100 µM; in experiment [3] it was 32.5 µM; in experiment [4], greater than 100 µM; in experiment [5], greater than 100 µM.
As for `CCCNCCOc1cc(O)c2c(=O)cc(-c3ccccc3)oc2c1`, the IC50 in experiment [1] was 1.5 µM; in experiment [2] it was 11.1 µM; in experiment [3] it was 1.4 µM; in experiment [4], 12.9 µM; in experiment [5], 56.6 µM.
Regarding `CN1CCN(CCOc2cc(O)c3c(=O)cc(-c4ccccc4)oc3c2)CC1`, the IC50 is 18.7 µM in experiment [1]; 55.7 µM in experiment [2]; 28.7 µM in experiment [3]; 23.9 µM in experiment [4]; 47.4 µM in experiment [5].
For the compound `CCCN(CCC)CCOc1cc(O)c2c(=O)cc(-c3ccccc3)oc2c1`, the half-maximal inhibitory concentration (IC50) in experiment [1] was 38 µM; in experiment [2], 23.6 µM; in experiment [3], 8.4 µM; in experiment [4], greater than 100 µM; in experiment [5], 1.56 µM.
The like results for `CCN(CC)CCOc1cc(O)c2c(=O)cc(-c3ccccc3)oc2c1` were, in that order, 9.8 µM, 13.9 µM, 3.17 µM, 12.9 µM and 18.8 µM.
In the case of `O=c1cc(-c2ccccc2)oc2cc(O)cc(O)c12` [CHRYSIN], the IC50 is greater than 100 µM in experiment [1]; greater than 100 µM in experiment [2]; 9.81 µM in experiment [3]; greater than 100 µM in experiment [4]; 43 µM in experiment [5].
For `O=c1[nH]cc(F)c(=O)[nH]1` [FLUOROURACIL], the IC50 is 2.19 µM in experiment [2] and 2.95 µM in experiment [3].

In general, IC50 refers to the midpoint of a concentration-inhibition curve. A low value points to inhibition by little substance.
